Assay: Analytical data of the compound obtained: water solubility
Type: physicochemical
Settings: product of Example 1, white powder

Compound: CC(=O)OC(CC(=O)O)C[N+](C)(C)C.CC(=O)OC(CC(=O)O)C[N+](C)(C)C.O=C([O-])C(O)C(O)C(O)C(O)C(=O)[O-] [Example 1, acetyl L-carnitine mucate (2:1)]
- Water solubility: Poorly soluble
